{"source": "patent US11713305B2", "about": "“Zinc sensors for in vivo imaging of beta-cell function by MRI” (The Board of Regents of the University of Texas System, priority 2017, dated 2023)", "key": {"[1]": {"conditions": "cited from earlier work"}, "HSA": {"target": "T1, HSA (Homo sapiens, UniProt P02768)", "T1 construct": "purchased Sigma-Aldrich", "T1 sequence (P02768 25-609)": "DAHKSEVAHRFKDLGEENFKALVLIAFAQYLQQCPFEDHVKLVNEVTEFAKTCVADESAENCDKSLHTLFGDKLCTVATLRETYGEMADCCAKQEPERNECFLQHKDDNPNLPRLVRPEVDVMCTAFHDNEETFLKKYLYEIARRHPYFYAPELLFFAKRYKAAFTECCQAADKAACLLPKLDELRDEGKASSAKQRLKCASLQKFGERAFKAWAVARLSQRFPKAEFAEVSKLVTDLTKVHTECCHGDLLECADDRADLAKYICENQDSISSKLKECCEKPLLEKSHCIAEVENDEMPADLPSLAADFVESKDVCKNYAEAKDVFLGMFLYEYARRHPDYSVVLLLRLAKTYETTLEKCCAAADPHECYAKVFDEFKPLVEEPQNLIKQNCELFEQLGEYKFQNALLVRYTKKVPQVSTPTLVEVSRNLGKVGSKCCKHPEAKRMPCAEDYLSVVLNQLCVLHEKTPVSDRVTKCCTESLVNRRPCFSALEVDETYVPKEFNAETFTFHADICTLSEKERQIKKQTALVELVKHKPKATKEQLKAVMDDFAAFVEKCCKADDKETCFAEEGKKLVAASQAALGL", "conditions": "used in fitting; read-out: KD for dansylglycine (HSA); cited from earlier work"}, "[2]": {"assay": "Kinetic inertness (transmetalation by Zn(II) in phosphate buffer)", "format": "physicochemical", "conditions": "four equivalents of Zn^2+ in phosphate buffer (pH=7), 310 K", "excerpt": "Shortly after the first confirmed clinical cases of nephrogenic systemic fibrosis (NSF), increased efforts have been made to design agents with high thermodynamic stability and kinetic inertness (Kallen et al., 2008; Reilly, 2008; Rofsky et al., 2008; Wiginton et al., 2008; Abujuden et al., 2009). The sensors shown here are very stable macrocyclic DO3A-monoamide derivatives with reported log KML>20. However, given that the agents reported here also have a high affinity for Zn^2+ ions, and Zn^2+ has been implicated as the major competing ion for transmetalation of Gd^3+ agents derived from linear polyamine ligands, the kinetic rate of Gd^3+ release is arguably the most critical factor in determining in vivo toxicity (Laurent et al., 2010). Using a previously published method (Laurent et al., 2010) consisting of incubating each agent with four equivalents of Zn^2+ in phosphate buffer (pH=7), we compared the kinetic stability of the agents reported here with the FDA-approved agent Magnevist® (GdDTPA, cf. FIG. 7).\nKinetic inertness was determined according to published procedures with minor modifications (Laurent et al., 2010; Silverio et al., 2009). Stock solutions of phosphate buffer (67 mM, pH=7.4), Gd(III) chelates (10 mM) and ZnCl2 (231 mM) were prepared first. Calculated volumes of stock solutions or water were pipetted into small glass vials to obtain a test solution of 300 μL with 30 mM phosphate, 1.5 mM Gd(III) chelate, and 6.0 mM Zn(II). Samples were measured 15 minutes after the sample temperature stabilized at 310 K. During the entire experiment, the samples inside the NMR tubes were kept in an incubator at 310 K. The T1 of the solutions was determined at 310 K and 0.47 T (20 MHz) at various time points within 7 days. As a reference, GdDTPA was analyzed under the same conditions. The R1^P relaxation rate is obtained by subtracting the diamagnetic contribution of the water relaxation (0.28 s-1) from the observed relaxation rate R1=(1/T1)."}, "mouse pancreas": {"test_system": "mouse pancreas", "assay": "In vivo MR imaging of glucose stimulated insulin secretion (GSIS) in the mouse pancreas", "design": "species or system C57B1/6 mice", "conditions": "over the first 10-15 min after injection; 0.07 mmol/kg i.v., glucose IP", "excerpt": "Both phases of insulin secretion are considered essential, but the early RRP phase that is thought to be the first signal reduced during the development of type 2 diabetes (Komatsu et al., 2013; Hosker et al., 1989). In principle, both phases of insulin secretion should be detectable by MRI if enough sensor is present in the extracellular space during the time-course of these events. Biphasic GSIS was not detected by MRI in previous experiments using the first generation Zn^2+ sensors with a high affinity for Zn^2+ but we hypothesized that GSIS may be more easily detected using these second-generation agents having a much lower affinity for Zn^2+. To test this, dynamic MRI scans were collected after administering either GdL1, GdL2, GdL3 or GdL4 to C57B1/6 mice via a tail vein (0.07 mmol/kg). Nearly simultaneously with agent injection, a bolus (50 μL) of 20% w/v glucose was administered IP to stimulate secretion of insulin.\nAll animal experiments were performed in accordance with guidelines set by the UT Southwestern Institutional Animal Care and Use Committee (IACUC). Male C57b1/6 mice were fasted for at least 12 hours before imaging experiments. The animals were anaesthetized with isofluorane and catheterized via the tail vein. Once the animals were secured inside a 38 mm volume coil, the pancreas was positioned in the center of the 9.4 T Varian MRI scanner. Two 3D T1-weighted gradient echo pre-injection scans were obtained (TE/TR=1.69/3.34 ms, NEX8, Matrix=128×128 ×128). 70 μl of 20 mM contrast agent were injected i.v. and 50 μl of 20% w/v D-glucose were injected intraperitoneally and consecutive 3D T1-weighted scans were obtained sequentially to monitor signal enhancement in the pancreas. Identification of the pancreas was accomplished by locating the tissues surrounded by the spleen, stomach, and kidneys. A total of 3 animals were scanned per group and images were quantified and analyzed using ImageJ (National Institutes of Health, Bethesda, Md.). The signal intensities from ROIs of the tip of the pancreas were measured before, at every ˜3-4 minutes post D-glucose injection over 30 minutes total. The values were normalized to the signal intensity obtained from a water phantom placed on the mouse abdomen. Contrast enhancement was calculated using the formula\n[formula] Statistical analysis was performed by comparing the mean values using a two-tailed t-test. Statistical difference was evaluated using t-scores and p-values at a 95 and 99% confidence level."}, "[3]": {"conditions": "comparison Dy complexes; cited from earlier work"}, "[4]": {"conditions": "Measured at 25° C., Powell et al., 1994, 1996"}}, "note": "Like-named read-outs stand apart in the source and are kept apart here.", "data": [{"smiles": "O=C([O-])CN1CCN(CC(=O)[O-])CCN(CC(=O)[O-])CCN(CC(=O)[O-])CC1.[Gd+3]", "note": "[GdDOTA]", "values": [{"measurement": "hyperfine coupling constant (AO/ℏ)", "setting": "[1]; [4]", "result": "−3.7 ×10^6 rad/s"}, {"measurement": "water exchange rate kex", "setting": "[1]; [4]", "result": "4.1e+06", "unit": "s⁻¹"}, {"measurement": "ER", "setting": "[1]; reference complexes", "result": 16.1, "unit": "kJ/mol"}, {"measurement": "EV", "setting": "[1]; reference complexes", "result": 1.0, "unit": "kJ/mol"}, {"measurement": "ΔH‡", "setting": "[1]; reference complexes", "result": 49.8, "unit": "kJ/mol"}, {"measurement": "Δ^2", "setting": "[1]; reference complexes", "result": "0.16 10^20 s^−2"}, {"measurement": "τRO^298", "setting": "[1]; reference complexes", "result": 77, "unit": "ps"}, {"measurement": "τV^298", "setting": "[1]; reference complexes", "result": 11, "unit": "ps"}]}, {"smiles": "CN(C)c1cccc2c(S(=O)(=O)NCC(=O)O)cccc12", "note": "[dansylglycine]", "values": [{"measurement": "Kd", "setting": "HSA", "result": 2500, "unit": "nM"}]}, {"smiles": "CNC[C@H](O)[C@@H](O)[C@H](O)[C@H](O)CO.CNC[C@H](O)[C@@H](O)[C@H](O)[C@H](O)CO.O=C([O-])CN(CCN(CC(=O)[O-])CC(=O)O)CCN(CC(=O)[O-])CC(=O)O.[Gd+3]", "note": "[Magnevist, reference compound]", "values": [{"measurement": "kinetic stability against transmetalation", "setting": "[2]", "result": "some transmetalation"}]}, {"smiles": "CC(O)CN1CCN(CC(=O)[O-])CCN(CC(=O)[O-])CCN(CC(=O)[O-])CC1.[Gd+3]", "note": "(centres unmarked) [GdHPDO3A, reference compound]", "values": [{"measurement": "T1-weighted MR image enhancement in pancreatic tissues and kidneys", "setting": "mouse pancreas", "result": "significant image enhancements"}]}, {"smiles": "O=C([O-])CNC(=O)CN1CCN(CC(=O)NCC(=O)[O-])CCN(CC(=O)NCC(=O)[O-])CCN(CC(=O)NCC(=O)[O-])CC1.[Dy+3]", "note": "[Dy DOTA-(gly)4]", "values": [{"measurement": "1/T2m^298", "setting": "[3]", "result": "1000 10^4 s^−1"}, {"measurement": "A1", "setting": "[3]", "result": "−50 10^6rad s^−1K T^−1"}, {"measurement": "A2", "setting": "[3]", "result": "0 10^9rad s^−1K^2 T^−1"}, {"measurement": "ER", "setting": "[3]", "result": -50, "unit": "kJ/mol"}, {"measurement": "kex^298", "setting": "[3]", "result": "0.09 10^6 s^−1"}, {"measurement": "ΔH^‡", "setting": "[3]", "result": 53, "unit": "kJ/mol"}]}, {"smiles": "O=C([O-])CN1CCN(CC(=O)[O-])CCN(CC(=O)[O-])CCN(CC(=O)[O-])CC1.[Dy+3]", "note": "[DyDOTA]", "values": [{"measurement": "1/T2m^298", "setting": "[3]", "result": "20 10^4 s^−1"}, {"measurement": "A1", "setting": "[3]", "result": "−50 10^6rad s^−1K T^−1"}, {"measurement": "A2", "setting": "[3]", "result": "0 10^9rad s^−1K^2 T^−1"}, {"measurement": "ER", "setting": "[3]", "result": -90, "unit": "kJ/mol"}, {"measurement": "kex^298", "setting": "[3]", "result": "70 10^6 s^−1"}, {"measurement": "ΔH^‡", "setting": "[3]", "result": 90, "unit": "kJ/mol"}]}]}
